Test results reported in ChEMBL document CHEMBL1201862, “PubChem BioAssay data set” (2004).
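These data come from cells grown in 96-well plates and exposed to compound for 48 hours at five concentrations. Abbreviation: GI50, concentration required for 50% inhibition of growth.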 Activity calls are given as the source filed them. Cut-off read from the data, not from the text of the source: active = GI50 up to about 1.1 µM and inactive = higher.

Columns and labels:
Experiment in all cases: growth of human tumour cells (NCI), 48 h
[1] = system: A549
[2] = system: ACHN
[3] = system: CAKI-1
[4] = system: DLD-1
[5] = system: K562
[6] = system: KM12
[7] = system: MOLT-4
[8] = system: NCI-H226
[9] = system: NCI-H23
[10] = system: SF-295
[11] = system: SK-MEL-2
[12] = system: SNB-19
[13] = system: SW-620
[14] = system: UACC-257
[15] = system: CCRF-CEM
[16] = system: HOP-62
[17] = system: OVCAR-3
[18] = system: MDA-MB-231
[19] = system: MDA-N

Measured: GI50

COc1ccc(C(=O)/C(=N/Nc2ccccc2)c2ccc(OC)cc2)cc1
inactive: [1] > 100 µM | [2] 33.9 µM | [3] > 100 µM | [4] 6.87 µM | [5] 20.4 µM | [6] 10.6 µM | [7] 9.66 µM | [8] > 100 µM | [9] > 100 µM | [10] > 100 µM | [11] > 100 µM | [12] > 100 µM | [13] > 100 µM | [14] > 100 µM

O=[N+]([O-])C(/C=N/Nc1ccccc1)/C=N/Nc1ccccc1
inactive: [1] > 100 µM | [2] > 100 µM | [3] > 100 µM | [15] > 100 µM | [4] > 100 µM | [16] > 100 µM | [5] > 100 µM | [6] > 100 µM | [7] > 100 µM | [8] > 100 µM | [9] > 100 µM | [17] > 100 µM | [10] > 100 µM | [11] > 100 µM | [12] > 100 µM | [13] > 100 µM | [14] > 100 µM

COc1ccc(CNC2=C(NC(C)=O)C(=O)c3ccccc3C2=O)cc1
inactive: [1] 17.3 µM | [2] 2.07 µM | [15] 8.73 µM | [4] 8.53 µM | [16] > 50 µM | [5] 7.76 µM | [6] 23 µM | [7] 3.71 µM | [8] 12.6 µM | [9] 6.68 µM | [17] 8.07 µM | [10] 17.8 µM | [11] 9.18 µM | [12] 25.5 µM | [13] 8.13 µM | [14] 8.77 µM

COC(=O)C(/C(=N\O)C(=O)Nc1ccc(Br)cc1)c1nc2ccccc2nc1O (stereo not drawn)
inactive: [1] > 100 µM | [2] 49.2 µM | [3] > 100 µM | [15] 25.3 µM | [4] 35.2 µM | [16] 28.4 µM | [5] 26.4 µM | [6] > 100 µM | [7] 26.1 µM | [8] 29 µM | [9] > 100 µM | [17] 23.1 µM | [10] > 100 µM | [11] 23 µM | [12] 78.2 µM | [14] > 100 µM

C[P+](C)(CC(F)(F)F)c1ccccc1
inactive: [1] > 100 µM | [2] > 100 µM | [15] > 100 µM | [4] > 100 µM | [16] > 100 µM | [5] > 100 µM | [6] > 100 µM | [7] > 100 µM | [8] > 100 µM | [9] > 100 µM | [17] > 100 µM | [10] > 100 µM | [11] > 100 µM | [12] > 100 µM | [13] > 100 µM | [14] > 100 µM

COc1cc2c(cc1OC)c1c(OC)c(OC)cc3c1c1c2sc(=S)n1CC3
inactive: [1] > 100 µM | [2] > 100 µM | [3] > 100 µM | [15] 24.5 µM | [4] 43 µM | [5] 21.6 µM | [6] 55.8 µM | [7] 30.7 µM | [8] > 100 µM | [9] 44.4 µM | [17] 55.5 µM | [10] > 100 µM | [11] > 100 µM | [12] 67.1 µM | [13] 51.1 µM | [14] > 100 µM

C#CC1/C(=C\C(=O)OC)CCCC1O (stereo not drawn)
inactive: [1] > 100 µM | [2] > 100 µM | [3] > 100 µM | [15] > 100 µM | [4] > 100 µM | [16] > 100 µM | [5] > 100 µM | [6] > 100 µM | [7] > 100 µM | [8] > 100 µM | [9] > 100 µM | [17] > 100 µM | [10] > 100 µM | [11] > 100 µM | [12] > 100 µM | [13] > 100 µM | [14] > 100 µM

COc1cc(OC)c2c(=O)c3c([N+](=O)[O-])cccc3n(C)c2c1
inactive: [1] > 100 µM | [2] > 100 µM | [3] > 100 µM | [15] > 100 µM | [4] > 100 µM | [16] > 100 µM | [5] > 100 µM | [6] > 100 µM | [7] > 100 µM | [8] > 100 µM | [9] > 100 µM | [17] > 100 µM | [10] > 100 µM | [11] > 100 µM | [12] > 100 µM | [13] > 100 µM | [14] > 100 µM

CC(=O)OC1COC(N2C(=O)/C(=N\Nc3ccc([N+](=O)[O-])cc3)c3cc(Br)c([N+](=O)[O-])cc32)C(OC(C)=O)C1OC(C)=O (stereo not drawn)
inactive: [1] > 100 µM | [2] 21.6 µM | [3] 50.4 µM | [15] 61.5 µM | [4] > 100 µM | [16] 38.5 µM | [5] 41 µM | [6] 27.9 µM | [7] > 100 µM | [8] > 100 µM | [9] 31.6 µM | [17] > 100 µM | [10] 21.4 µM | [11] > 100 µM | [12] > 100 µM | [13] 46 µM | [14] > 100 µM

C=C(C)C(=O)OC1CC2=CC(CC3(C)OC3C3OC(=O)C(=C)C13)OC2=O (stereo not drawn)
inactive: [1] 18.6 µM | [2] 5.41 µM | [3] 4.58 µM | [4] 1.99 µM | [16] 22.4 µM | [6] 15.6 µM | [18] 18.1 µM | [19] > 10 µM | [7] 1.84 µM | [8] 22.2 µM | [9] 15.4 µM | [17] 10.7 µM | [10] 18.6 µM | [11] 12.9 µM | [12] 18.5 µM | [13] 2.24 µM | [14] 5.41 µM

CN(N=O)C(=O)N(N)CCCCC(NC(=O)OCc1ccccc1)C(=O)OCc1ccccc1 (stereo not drawn)
inactive: [1] 81.8 µM | [2] 19 µM | [3] 25.6 µM | [15] 14.3 µM | [4] 58.7 µM | [16] 9.75 µM | [5] 45.4 µM | [6] 38.8 µM | [7] 18.9 µM | [8] 22.2 µM | [9] 14.6 µM | [17] 23.1 µM | [10] 75.9 µM | [11] 91.6 µM | [12] > 100 µM | [13] 65.9 µM | [14] 18.7 µM

OC(c1ccccc1)(c1ccccc1)c1cccnc1
inactive: [1] > 100 µM | [2] > 100 µM | [3] > 100 µM | [15] > 100 µM | [4] > 100 µM | [16] > 100 µM | [5] > 100 µM | [6] > 100 µM | [8] > 100 µM | [9] > 100 µM | [17] > 100 µM | [10] > 100 µM | [11] > 100 µM | [12] > 100 µM | [13] > 100 µM | [14] > 100 µM

CC1=C(C(=O)NCc2ccccc2)C(c2ccccc2O)C(C(=O)NCc2ccccc2)=C(C)N1
inactive: [1] 20.8 µM | [2] 16.4 µM | [3] 18.3 µM | [15] 26.5 µM | [4] 15.1 µM | [16] 19.9 µM | [5] 36.1 µM | [6] 16.6 µM | [7] 31.3 µM | [8] 16.6 µM | [9] 17.1 µM | [17] 17.4 µM | [10] 21.1 µM | [11] 15.4 µM | [12] 19.2 µM | [13] 17.7 µM | [14] 16.1 µM

O=C1CCCC1NC(=O)C(F)(F)F (stereo not drawn)
inactive: [1] > 100 µM | [2] > 100 µM | [3] > 100 µM | [15] > 100 µM | [4] > 100 µM | [16] > 100 µM | [5] > 100 µM | [6] > 100 µM | [7] > 100 µM | [8] > 100 µM | [9] > 100 µM | [17] > 100 µM | [10] > 100 µM | [11] > 100 µM | [12] > 100 µM | [13] > 100 µM | [14] > 100 µM

O=C(O)CN(c1ccccc1)S(=O)(=O)c1ccccc1[N+](=O)[O-]
inactive: [1] > 100 µM | [2] > 100 µM | [3] > 100 µM | [15] > 100 µM | [4] > 100 µM | [5] > 10 µM | [6] > 100 µM | [7] > 100 µM | [8] > 100 µM | [9] > 100 µM | [17] > 100 µM | [10] > 100 µM | [11] > 100 µM | [12] > 100 µM | [13] > 100 µM | [14] > 100 µM

COc1ccc(NC(=O)c2cc(OC)c(OC)c(OC)c2)cc1
inactive: [1] 62.1 µM | [2] 83.8 µM | [3] 66.4 µM | [15] 37.8 µM | [4] 50.6 µM | [16] 33 µM | [5] 24.7 µM | [6] 22.8 µM | [7] 34.3 µM | [8] > 78.3 µM | [9] 40.7 µM | [17] 39.1 µM | [10] 36.1 µM | [11] 21.8 µM | [12] > 100 µM | [13] 39.8 µM | [14] 42.8 µM
